What was measured:
Assay in all cases: relative viability (nuclei count vs DMSO), 5 days (fraction); higher = more cells survive
[1] = compound: C/C(=N\NC(=S)N1CCC1)/C2=CC=CC=N2 + C[C@@H](Oc1cc(-c2cnn(C3CCNCC3)c2)cnc1N)c1c(Cl)ccc(F)c1Cl [Crizotinib] (partner 1 µM)
In short: (§1)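 Lung cancer cell lines were seeded in 1536-well plates and dosed by pin tool the next day, with either a single drug or a fixed anchor-drug dose combined with five library-drug doses (not always all listed) spaced in √10 steps. Five days later, one step fixed the cells and stained their nuclei (final 0.05% Triton X-100, 1% formaldehyde, 1 ug/ml Hoechst), and nuclei were counted on 4× images. Relative viability is the nuclei count in treated wells divided by the count in vehicle wells, and each value is the median of duplicate plates.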

[2] = compound: C/C(=N\NC(=S)N1CCC1)/C2=CC=CC=N2 + Cc1nc(Nc2ncc(C(=O)Nc3c(C)cccc3Cl)s2)cc(N2CCN(CCO)CC2)n1 [Dasatinib] (partner 0.075 µM)
In short: as §1

[3] = compound: C/C(=N\NC(=S)N1CCC1)/C2=CC=CC=N2 + O=C(CCCCCCC(=O)Nc1ccccc1)NO [Vorinostat] (partner 1 µM)
In short: as §1

[4] = compound: C/C(=N\NC(=S)N1CCC1)/C2=CC=CC=N2 + CC1(C)CCC(c2ccc(Cl)cc2)=C(CN2CCN(c3ccc(C(=O)NS(=O)(=O)c4ccc(N[C@H](CCN5CCOCC5)CSc5ccccc5)c(S(=O)(=O)C(F)(F)F)c4)cc3)CC2)C1 [Navitoclax] (partner 0.5 µM)
In short: as §1

| Cell Line | relative viability ([1]; first compound 0.05 µM) | relative viability ([1]; first compound 0.1581 µM) | relative viability ([1]; first compound 0.5 µM) | relative viability ([1]; first compound 1.581 µM) | relative viability ([1]; first compound 5 µM) | relative viability ([2]; first compound 0.05 µM) | relative viability ([2]; first compound 0.1581 µM) | relative viability ([2]; first compound 0.5 µM) | relative viability ([2]; first compound 1.581 µM) | relative viability ([2]; first compound 5 µM) | relative viability ([3]; first compound 0.05 µM) | relative viability ([3]; first compound 0.1581 µM) | relative viability ([3]; first compound 0.5 µM) | relative viability ([3]; first compound 1.581 µM) | relative viability ([3]; first compound 5 µM) | relative viability ([4]; first compound 0.05 µM) | relative viability ([4]; first compound 0.1581 µM) | relative viability ([4]; first compound 0.5 µM) | relative viability ([4]; first compound 1.581 µM) | relative viability ([4]; first compound 5 µM) |
| --- | --- | --- | --- | --- | --- | --- | --- | --- | --- | --- | --- | --- | --- | --- | --- | --- | --- | --- | --- | --- |
| NCI-H2170 | 1.12 | 1.09 | 0.269 | 0.183 | 0.162 | 0.164 | 0.167 | 0.145 | 0.125 | 0.161 | 0.267 | 0.195 | 0.161 | 0.155 | 0.0916 | 0.581 | 0.543 | 0.168 | 0.207 | 0.189 |
| NCI-H441 | 0.241 | 0.175 | 0.134 | 0.11 | 0.128 | 0.143 | 0.15 | 0.159 | 0.108 | 0.156 | 0.16 | 0.19 | 0.153 | 0.111 | 0.127 | 0.374 | 0.188 | 0.205 | 0.174 | 0.15 |
| SK-LU-1 | 0.277 | 0.191 | 0.203 | 0.19 | 0.208 | 0.123 | 0.139 | 0.145 | 0.0978 | 0.114 | 0.21 | 0.244 | 0.242 | 0.219 | 0.272 | 0.183 | 0.167 | 0.148 | 0.124 | 0.112 |
| BEN | 0.193 | 0.182 | 0.244 | 0.177 | 0.169 | 0.142 | 0.187 | 0.177 | 0.171 | 0.153 | 0.233 | 0.293 | 0.296 | 0.281 | 0.3 | 0.0467 | 0.0428 | 0.0598 | 0.115 | 0.114 |
| LC-2-ad | 0.226 | 0.207 | 0.198 | 0.171 | 0.143 | 0.191 | 0.187 | 0.143 | 0.165 | 0.166 | 0.197 | 0.172 | 0.191 | 0.185 | 0.17 | 0.0933 | 0.0992 | 0.0713 | 0.0966 | 0.121 |
| COR-L23 | 0.11 | 0.119 | 0.12 | 0.0692 | 0.0727 | 0.102 | 0.095 | 0.0719 | 0.0707 | 0.0937 | 0.11 | 0.099 | 0.0957 | 0.0832 | 0.0963 | 0.108 | 0.111 | 0.0885 | 0.077 | 0.0905 |
| NCI-H1650 | 0.18 | 0.199 | 0.19 | 0.153 | 0.175 | 0.154 | 0.172 | 0.167 | 0.157 | 0.183 | 0.159 | 0.171 | 0.143 | 0.143 | 0.178 | 0.13 | 0.173 | 0.142 | 0.181 | 0.214 |
| RERF-LC-KJ | 0.224 | 0.263 | 0.253 | 0.239 | 0.242 | 0.258 | 0.25 | 0.266 | 0.219 | 0.245 | 0.214 | 0.207 | 0.19 | 0.21 | 0.208 | 0.184 | 0.266 | 0.245 | 0.159 | 0.227 |

From the supplement of paper PMC10307832
